In ChEMBL document CHEMBL1147504, “Synthesis of methylphenidate analogues and their binding affinities at dopamine and serotonin transport sites” (Bioorg Med Chem Lett, 2004):

What was measured:
[1] = biological target: Sodium-dependent serotonin transporter (Rattus norvegicus, UniProt P31652); test: Ability to displace 0.4 nM [3H]paroxetine binding to serotonin transporter in rat frontal cortex; type: tissue-based
[2] = biological target: T1, Sodium-dependent dopamine transporter (Rattus norvegicus, UniProt P23977)
Description: Potency of inhibiting 10 pM [125I]RTI-55 binding to dopamine transporter in rat striatal membranes

[3] = biological target: T1, Sodium-dependent dopamine transporter; test: Inhibitory activity against dopamine transporter in rat striatal membranes; type: cell membranes, Striatum, Membrane
Dopamine receptor [4] = biological target: Dopamine receptor
Description: Potency of inhibiting 10 pM [125I]-RTI-55 binding to dopamine receptor in rat striatal membranes

[5] = […]; type: tissue-based, Frontal cortex
Dopamine receptor [6] = test: Potency of inhibiting [3H]WIN-35428 binding to […] in rat striatal membranes; type: cell membranes, Membrane

Chain of Sodium-dependent serotonin transporter (P31652 whole entry): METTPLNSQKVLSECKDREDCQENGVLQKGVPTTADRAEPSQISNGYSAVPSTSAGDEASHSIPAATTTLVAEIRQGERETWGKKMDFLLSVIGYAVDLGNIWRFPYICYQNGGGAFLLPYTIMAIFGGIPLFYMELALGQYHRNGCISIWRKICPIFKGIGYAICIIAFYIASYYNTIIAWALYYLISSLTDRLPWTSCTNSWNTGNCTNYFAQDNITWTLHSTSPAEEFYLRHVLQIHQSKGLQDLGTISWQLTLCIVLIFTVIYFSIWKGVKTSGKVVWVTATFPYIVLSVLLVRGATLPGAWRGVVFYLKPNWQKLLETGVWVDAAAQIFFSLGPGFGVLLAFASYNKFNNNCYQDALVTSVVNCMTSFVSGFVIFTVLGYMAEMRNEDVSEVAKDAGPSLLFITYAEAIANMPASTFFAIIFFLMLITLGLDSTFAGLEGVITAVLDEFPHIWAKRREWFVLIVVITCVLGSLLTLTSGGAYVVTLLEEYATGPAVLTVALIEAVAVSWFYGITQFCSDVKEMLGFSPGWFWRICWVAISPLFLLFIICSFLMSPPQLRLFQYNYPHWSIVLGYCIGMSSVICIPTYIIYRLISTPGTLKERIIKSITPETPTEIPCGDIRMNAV
T1 sequence (P23977 whole entry): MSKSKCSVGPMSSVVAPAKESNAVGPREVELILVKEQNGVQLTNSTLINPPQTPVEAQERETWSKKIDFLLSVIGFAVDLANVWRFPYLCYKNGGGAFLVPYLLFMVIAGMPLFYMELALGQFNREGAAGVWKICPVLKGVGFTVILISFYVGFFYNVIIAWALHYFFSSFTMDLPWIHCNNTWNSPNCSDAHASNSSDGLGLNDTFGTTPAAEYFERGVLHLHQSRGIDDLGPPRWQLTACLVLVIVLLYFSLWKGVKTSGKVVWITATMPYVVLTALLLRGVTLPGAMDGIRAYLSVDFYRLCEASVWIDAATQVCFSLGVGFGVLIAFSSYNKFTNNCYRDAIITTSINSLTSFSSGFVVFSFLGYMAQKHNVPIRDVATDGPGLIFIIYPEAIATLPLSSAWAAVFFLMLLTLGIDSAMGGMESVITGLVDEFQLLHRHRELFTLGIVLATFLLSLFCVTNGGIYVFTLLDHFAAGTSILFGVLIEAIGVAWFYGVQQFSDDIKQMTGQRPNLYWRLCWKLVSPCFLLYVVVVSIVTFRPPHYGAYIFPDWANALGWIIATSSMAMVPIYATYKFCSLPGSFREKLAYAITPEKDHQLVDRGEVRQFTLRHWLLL

COC(=O)[C@H](c1ccc2cc(C)ccc2c1)[C@@H]1CCCN1 (stereo in doubt)
Ki [1]: 2.3 nM
IC50 [2]: 850 nM

COC(=O)[C@H](c1ccccc1)[C@H]1CCCN1 (racemic)
IC50 [3]: 1340 nM
Ki [1]: > 10000 nM
IC50 [2]: 3160 nM

COC(=O)[C@H](c1ccc(-c2ccccc2)cc1)[C@H]1CCCCN1.Cl (racemic)
IC50 (Dopamine receptor [4]): 1020 nM
Ki [5]: > 10000 nM

COC(=O)[C@H](c1ccc(C)cc1)[C@H]1CCCN1 (racemic)
Ki [1]: > 10000 nM
IC50 [2]: 1930 nM

COC(=O)[C@H](c1ccc2ccccc2c1)[C@@H]1CCCCN1.Cl (racemic)
IC50 (Dopamine receptor [4]): 2080 nM
Ki [5]: 105 nM

COC(=O)[C@H](c1ccc(Cl)c(Cl)c1)[C@H]1CCCCN1.Cl (racemic)
IC50 (Dopamine receptor [4]): 2.67 nM
Ki [5]: > 10000 nM
IC50 (Dopamine receptor [6]): 5.3 nM

COC(=O)[C@H](c1ccc(C)cc1)[C@@H]1CCCCN1.Cl (racemic)
IC50 (Dopamine receptor [4]): 7430 nM
Ki [5]: > 10000 nM

COC(=O)[C@H](c1ccc(-c2ccccc2)cc1)[C@@H]1CCCCN1.Cl (racemic)
IC50 (Dopamine receptor [4]): 6470 nM
Ki [5]: > 10000 nM

COC(=O)[C@H](c1ccc(C)cc1)[C@H]1CCCCN1.Cl (racemic)
IC50 (Dopamine receptor [4]): 114 nM
Ki [5]: > 10000 nM
IC50 (Dopamine receptor [6]): 33 nM

COC(=O)[C@H](c1ccc(C)cc1)[C@@H]1CCCN1 (racemic)
Ki [1]: > 10000 nM
IC50 [2]: > 1000 nM

COC(=O)[C@H](c1ccc2ccccc2c1)[C@H]1CCCCN1.Cl
IC50 (Dopamine receptor [4]): 11.1 nM
Ki [5]: 94.8 nM

COC(=O)[C@H](c1ccc2cc(Br)ccc2c1)[C@@H]1CCCN1 (racemic)
Ki [1]: 11.4 nM
IC50 [2]: 195 nM

COC(=O)[C@H](c1ccc(Br)cc1)[C@@H]1CCCN1 (racemic)
Ki [1]: > 10000 nM
IC50 [2]: 637 nM

COC(=O)[C@H](c1ccccc1)[C@@H]1CCCN1 (racemic)
Ki [1]: > 10000 nM
IC50 [2]: > 1000 nM

COC(=O)[C@H](c1ccc2cc(OC)ccc2c1)[C@@H]1CCCN1
Ki [1]: 54.6 nM

COC(=O)[C@H](c1ccc2cc(OC)ccc2c1)[C@@H]1CCCN1 (racemic)
Ki [1]: 245 nM

COC(=O)[C@H](c1ccccc1)[C@@H]1CCCCN1.Cl (racemic)
IC50 (Dopamine receptor [4]): > 1000 nM
Ki [5]: > 10000 nM

COC(=O)[C@H](c1ccc(Cl)cc1)[C@@H]1CCCCN1 (racemic)
Ki [5]: > 10000 nM

COC(=O)[C@H](c1ccc2cc(C)ccc2c1)[C@@H]1CCCN1 (stereo in doubt; 10i)
Ki [1]: 3.2 nM
IC50 [2]: 1410 nM

COC(=O)[C@H](c1ccc2ccccc2c1)[C@H]1CCCCN1 (racemic)
Ki [5]: 71.6 nM

COC(=O)[C@@H](c1ccc2ccccc2c1)[C@H]1CCCN1
Ki [1]: 2020 nM

COC(=O)[C@H](c1ccc(Cl)c(Cl)c1)[C@@H]1CCCCN1.Cl (racemic)
IC50 (Dopamine receptor [4]): 33.8 nM
Ki [5]: > 10000 nM

COC(=O)[C@H](c1ccc(Cl)cc1)[C@H]1CCCCN1.Cl (racemic)
IC50 (Dopamine receptor [4]): 91.2 nM
Ki [5]: 2220 nM
IC50 (Dopamine receptor [6]): 20.6 nM

COC(=O)[C@H](c1ccccc1)[C@H]1CCCCN1.Cl (racemic) [DEXMETHYLPHENIDATE HYDROCHLORIDE]
IC50 (Dopamine receptor [4]): 164 nM
Ki [5]: > 10000 nM
IC50 (Dopamine receptor [6]): 83 nM

COC(=O)[C@H](c1ccc2ccccc2c1)[C@@H]1CCCN1
Ki [1]: 2.5 nM
IC50 [2]: 465 nM

COC(=O)[C@H](c1ccc2ccccc2c1)[C@@H]1CCCN1 (racemic)
Ki [1]: 4 nM
IC50 [2]: 805 nM

COC(=O)[C@H](c1ccc2cc(Br)ccc2c1)[C@@H]1CCCN1
Ki [1]: 5.5 nM
IC50 [2]: 446 nM

COC(=O)[C@H](c1ccc(Cl)cc1)[C@@H]1CCCN1 (racemic)
Ki [1]: 1900 nM
IC50 [2]: > 1000 nM

COC(=O)[C@H](c1ccc(Cl)cc1)[C@H]1CCCN1 (racemic)
Ki [1]: 1080 nM
IC50 [2]: 272 nM
